Publication PMC10452033, “The Importance of the “Time Factor” for the Evaluation of Inhibition Mechanisms: The Case of Selected HDAC6 Inhibitors” (Biology, 2023)
Each block holds one compound with its values, some of them ahead of it.

Experiments:
HDAC6 = details: cited from earlier work
[1] = test system: HDAC6 with respect to all other isoforms, including HDAC10; design: method as in PMID 36528061; details: cited from earlier work
[2] = test system: zebrafish HDAC6 CD2 (zHDAC6-CD2); design: method as in PMID 36528061; details: cited from earlier work
Human HDAC6 (GST-HDAC6) [3] = molecular target: T1, Human HDAC6 (GST-HDAC6) (Homo sapiens, UniProt Q9UBN7); experiment: Jump-dilution assay, kinetics of relief of inhibition of HDAC6
T1 sequence (Q9UBN7 1-1215): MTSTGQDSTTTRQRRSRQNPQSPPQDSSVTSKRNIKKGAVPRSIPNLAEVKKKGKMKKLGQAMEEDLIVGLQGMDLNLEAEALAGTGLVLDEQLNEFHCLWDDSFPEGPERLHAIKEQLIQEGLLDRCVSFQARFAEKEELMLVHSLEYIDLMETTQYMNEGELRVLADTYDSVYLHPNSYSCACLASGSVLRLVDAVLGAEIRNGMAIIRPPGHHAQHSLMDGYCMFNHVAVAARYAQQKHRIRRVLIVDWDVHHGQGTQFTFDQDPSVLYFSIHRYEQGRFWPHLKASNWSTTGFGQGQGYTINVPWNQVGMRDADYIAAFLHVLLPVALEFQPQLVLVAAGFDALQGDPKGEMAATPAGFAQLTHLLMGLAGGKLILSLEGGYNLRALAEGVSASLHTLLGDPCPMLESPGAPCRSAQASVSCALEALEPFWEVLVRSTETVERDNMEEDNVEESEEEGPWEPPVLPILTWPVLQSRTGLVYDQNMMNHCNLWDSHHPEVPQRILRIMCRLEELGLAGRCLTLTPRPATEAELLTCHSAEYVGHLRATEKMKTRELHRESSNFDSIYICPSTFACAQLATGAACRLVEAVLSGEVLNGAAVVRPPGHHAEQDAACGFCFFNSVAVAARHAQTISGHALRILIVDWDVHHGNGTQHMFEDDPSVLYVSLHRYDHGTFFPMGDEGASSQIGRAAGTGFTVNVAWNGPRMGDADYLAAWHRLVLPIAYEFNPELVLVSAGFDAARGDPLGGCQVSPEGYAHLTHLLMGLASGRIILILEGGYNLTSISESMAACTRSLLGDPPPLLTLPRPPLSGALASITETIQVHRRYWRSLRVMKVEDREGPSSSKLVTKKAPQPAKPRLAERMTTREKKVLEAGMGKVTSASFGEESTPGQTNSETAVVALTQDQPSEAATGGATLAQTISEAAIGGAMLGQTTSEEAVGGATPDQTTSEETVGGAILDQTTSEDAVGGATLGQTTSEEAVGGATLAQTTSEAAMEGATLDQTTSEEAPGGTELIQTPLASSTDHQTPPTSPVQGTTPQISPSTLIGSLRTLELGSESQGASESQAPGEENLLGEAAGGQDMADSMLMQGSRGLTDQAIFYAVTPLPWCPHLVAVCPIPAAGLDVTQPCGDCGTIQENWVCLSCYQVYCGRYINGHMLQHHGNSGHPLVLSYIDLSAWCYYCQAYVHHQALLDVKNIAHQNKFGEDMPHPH
Source text: (§1) Human HDAC6, as a chimeric form in which the full-length protein is preceded by glutathione S-transferase (GST), was purchased from BPS Bioscience.
From the slope of the lines and the intercepts (insets of Figure 1 E,G), one can calculate the apparent rate constants for formation of the inhibited complex and for its dissociation through Equation (4) (Table 1). Through Equation (5), the apparent dissociation constant of the EI complex could be calculated (Table 1). From jump-dilution assays of the type shown in Figure 1, right panels, the koff was independently calculated through Equation (2) (or from the linear part of the curves) in the presence of saturating substrate, to minimize the possibility that the inhibitor rebinds to the enzyme after dissociation (Table 1).
Panels (A,C,E,G): kinetics of onset of inhibition. […] Aliquots of reactions were stopped at different times with TSA and subsequently developed, as described in detailed methods in Supplementary information. […] The data were fitted to Equation (2) to determine the steady-state velocity values (vs), which were used to calculate IC50 and kobs (Table 1). The initial velocity was set to the value measured in the absence of the inhibitor. […] They were used to determine the mechanism of slow-binding inhibition, and estimates of kon, koff and Ki (Table 1). […]

Human HDAC6 (GST-HDAC6) [4] = molecular target: T1, Human HDAC6 (GST-HDAC6); experiment: Kinetics of onset of inhibition of HDAC6, progress curves with Fluor de Lys Green substrate; details: for slope factor (s): slope factor of the IC50 fit, Equation (1)
Source text: as §1
The activity assay described here is based on the use of the commercially available Fluor de Lys Green substrate, which contains an acetylated lysine residue covalently bound through an amide bond to the amino group of a fluorophore, likely a rhodamine derivative. Deacetylation of the lysine residue makes the amide bond susceptible to trypsin cleavage with release of the fluorophore that is accompanied by fluorescence increase.
For activity assays in the absence of inhibitors, measured fluorescence values at different reaction times, after subtraction of the background fluorescence, were analyzed to determine the initial velocity of reactions from the initial linear part of the curve. […] If the onset and relief of inhibition were sufficiently fast, compared to the time of the assay, the steady-state velocity could be calculated from the linear part of the progress curve at long reaction times. […] Thus, we could calculate apparent values of kon (the second-order rate constant for formation of the enzyme–inhibitor complex) and koff (the first-order rate constant for dissociation of the enzyme–inhibitor complex) for a simple E + I ↔ EI equilibrium from Equation (4). From the observed rates of complex formation and dissociation, an apparent dissociation constant of the complex could be calculated (Equation (5); [31, 40]). kobs = kon^app [I] + koff (4) Ki^app = koff/kon^app (5)
The steady-state velocities were used to estimate the IC50 and cooperativity (if any) from the “slope factor” (s) by calculating the percentage residual activity as a function of inhibitor concentration, and fitting to Equation (1).
From jump-dilution assays of the type shown in Figure 1, right panels, the koff was independently calculated through Equation (2) (or from the linear part of the curves) in the presence of saturating substrate, to minimize the possibility that the inhibitor rebinds to the enzyme after dissociation (Table 1).
Aliquots of reactions were stopped at different times with TSA and subsequently developed, as described in detailed methods in Supplementary information. […] The data were fitted to Equation (2) to determine the steady-state velocity values (vs), which were used to calculate IC50 and kobs (Table 1). The initial velocity was set to the value measured in the absence of the inhibitor.

Human HDAC6 = molecular target: T2, Human HDAC6 (Homo sapiens, UniProt Q9UBN7); experiment: Yonetani-Theorell analysis of the binding of ITF2357 and ITF3756 to HDAC6; assay type: biochemical; details: with respect to the Fluor de Lys substrate; parallel lines in Yonetani-Theorell plots
T2 sequence (Q9UBN7 1-1215): T1 sequence (Q9UBN7 1-1215)
Source text: Enzymes. Human HDAC6, as a chimeric form in which the full-length protein is preceded by glutathione S-transferase (GST), was purchased from BPS Bioscience.
In this analysis, the substrate concentration (S) is maintained constant at a sub-saturating concentration, and the concentration of one inhibitor (I) is varied in the presence of different levels of the second (J). The reaction velocity at a given I and J concentration pair (vij) depends on the corresponding inhibition constants (KI and KJ) and an interaction factor γ (Equation (7)). If I and J bind to the same site on the enzyme in a mutually exclusive way, the plots of reciprocal velocity as a function of the varied inhibitor concentration, at different constant levels of the second, yield a set of parallel lines because the interaction factor γ→∞ (Equation (8)). In this case, the common slope (Equation (9)) depends on the velocity of the uninhibited reaction (vo) and the dissociation constant of the varying inhibitor (KI). The dependence of the intercepts on the concentration of the inhibitor kept constant at different levels (J) should be linear (Equation (10)). The initial velocity of the inhibited enzyme, and the inhibition constants KI and KJ can be calculated. […]
The time-course of reactions was monitored to calculate the steady-state velocity from the linear part of the curve. […]

Compound: O=C(NNC(=O)C(F)F)c1ccc(Cn2cc(-c3ccc(NC4=NCCN4)cc3)nn2)cc1 [Compound 1a]
IC50 (HDAC6): 1.58 µM

Compound: NNC(=O)c1ccc(Cn2cc(-c3ccc(NC4=NCCN4)cc3)nn2)cc1 [Compound 1b]
IC50 (HDAC6): 0.329 µM

Now from value to compound, other results behind:

koff (Human HDAC6 (GST-HDAC6) [3]): 0.000108 s⁻¹
Ki (Human HDAC6 (GST-HDAC6) [4]): 0.0089 ± 0.00023 µM
koff (Human HDAC6 (GST-HDAC6) [4]): 8.33e-05 s⁻¹
kon (Human HDAC6 (GST-HDAC6) [4]; read-out: kon^app): 9330 M⁻¹ s⁻¹
slope factor (s) (Human HDAC6 (GST-HDAC6) [4]): 0.96 ± 0.04
Compound: FC(F)c1nnc(-c2ccc(Cn3cc(-c4ccc(NC5=NCCN5)cc4)nn3)cc2)o1 [Compound 1]
IC50 (HDAC6): 0.0077 µM
selectivity for HDAC6 with respect to all other isoforms [1]: greater than 10^4
observed rate constant for the release from the enzyme in jump-dilution assays [2]: (9.6 ± 1.1) × 10^−3 min^−1
rate constant for formation of the acyl-hydrazide from Compound 1 [2]: (6.04 ± 0.22)×10^−3 min^−1

apparent koff (Human HDAC6 (GST-HDAC6) [3]; pre-incubated with 10 nM TSA for 90 min, 100-fold dilution, 25 µM Fluor-de-Lys Green): 0.032 ± 0.008 min‐1
kinetic behaviour of onset and relief of inhibition (Human HDAC6 (GST-HDAC6) [4]; progress curves and jump-dilution assays): Slow binding
Compound: [R-(E,E)]-7-[4-(Dimethylamino)phenyl]-N-hydroxy-4,6-dimethyl-7-oxo-2,4-heptadienamide [TSA, reference compound]

mechanism of inhibition (Human HDAC6): competitive inhibitor
time after start of reaction at which steady-state velocity was reached (Human HDAC6 (GST-HDAC6) [4]; reaction started by addition of the enzyme): approximately 15 min
slope factor (s) (Human HDAC6 (GST-HDAC6) [4]): 1.0 ± 0.06
Compound: CCN(CC)Cc1ccc2cc(COC(=O)Nc3ccc(C(=O)NO)cc3)ccc2c1 [ITF2357, reference compound]
